The target in assay [1] is T1, Lyn (Homo sapiens (Human), UniProt P07948). The settings on record: read-out: Lyn IC50.
For assay [2], the target named is T2, Src (Homo sapiens (Human), UniProt P12931). As to the kind of experiment: biochemical.
The target in the next assay is BTK (Homo sapiens (Human), UniProt Q06187).
Another assay relates to DoHH2. The experiment in a line: CellTiter-Glo proliferation/viability assay. It is filed as cell-based, human. The settings on record: Homo sapiens, DOHH-2; 48 hrs; read-out: DoHH2 EC50. Background: Cellular ATP, detected with luciferase, serves as a proxy for viable cell number.
The test system of another assay is Ramos. The experiment in a line: CellTiter-Glo proliferation/viability assay. Type of assay: cell-based, human. The settings on record: Homo sapiens, Ramos, read-out: Ramos EC50.
Assay [3] addresses T1, Lyn. As to the kind of experiment: biochemical.
The target of assay [4] is T2, Src. The settings on record: read-out: Src IC50.

Like-named read-outs stand apart in the source and are kept apart here.

T1 sequence (P07948 whole entry): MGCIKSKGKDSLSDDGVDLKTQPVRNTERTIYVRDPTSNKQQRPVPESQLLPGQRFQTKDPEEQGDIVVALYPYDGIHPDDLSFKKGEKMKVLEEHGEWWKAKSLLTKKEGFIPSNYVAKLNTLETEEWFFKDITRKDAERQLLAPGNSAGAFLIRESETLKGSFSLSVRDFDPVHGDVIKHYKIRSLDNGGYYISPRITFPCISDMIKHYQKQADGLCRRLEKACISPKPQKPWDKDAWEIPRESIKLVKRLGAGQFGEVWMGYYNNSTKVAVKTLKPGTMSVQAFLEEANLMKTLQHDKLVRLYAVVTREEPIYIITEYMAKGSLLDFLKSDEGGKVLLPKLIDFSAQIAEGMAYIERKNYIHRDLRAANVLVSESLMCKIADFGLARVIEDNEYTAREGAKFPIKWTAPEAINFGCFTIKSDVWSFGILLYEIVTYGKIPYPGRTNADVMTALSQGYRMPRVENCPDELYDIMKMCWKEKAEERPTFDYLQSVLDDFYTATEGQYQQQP
T2 sequence (P12931 whole entry, looked up): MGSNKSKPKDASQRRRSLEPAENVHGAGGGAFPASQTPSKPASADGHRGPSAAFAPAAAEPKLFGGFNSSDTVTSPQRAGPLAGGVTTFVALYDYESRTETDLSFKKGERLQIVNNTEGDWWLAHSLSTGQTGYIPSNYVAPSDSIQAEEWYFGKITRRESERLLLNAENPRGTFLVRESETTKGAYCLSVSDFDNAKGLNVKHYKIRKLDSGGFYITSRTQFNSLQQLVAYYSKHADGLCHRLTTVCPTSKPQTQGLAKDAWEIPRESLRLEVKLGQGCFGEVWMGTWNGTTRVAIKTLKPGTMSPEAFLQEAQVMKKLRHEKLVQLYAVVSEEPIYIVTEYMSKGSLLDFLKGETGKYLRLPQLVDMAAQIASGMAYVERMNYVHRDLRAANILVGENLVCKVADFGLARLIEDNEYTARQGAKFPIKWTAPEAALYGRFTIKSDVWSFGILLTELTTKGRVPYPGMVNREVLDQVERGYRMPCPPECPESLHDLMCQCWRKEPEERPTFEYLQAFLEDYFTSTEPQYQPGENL
BTK, sequence (Q06187 whole entry): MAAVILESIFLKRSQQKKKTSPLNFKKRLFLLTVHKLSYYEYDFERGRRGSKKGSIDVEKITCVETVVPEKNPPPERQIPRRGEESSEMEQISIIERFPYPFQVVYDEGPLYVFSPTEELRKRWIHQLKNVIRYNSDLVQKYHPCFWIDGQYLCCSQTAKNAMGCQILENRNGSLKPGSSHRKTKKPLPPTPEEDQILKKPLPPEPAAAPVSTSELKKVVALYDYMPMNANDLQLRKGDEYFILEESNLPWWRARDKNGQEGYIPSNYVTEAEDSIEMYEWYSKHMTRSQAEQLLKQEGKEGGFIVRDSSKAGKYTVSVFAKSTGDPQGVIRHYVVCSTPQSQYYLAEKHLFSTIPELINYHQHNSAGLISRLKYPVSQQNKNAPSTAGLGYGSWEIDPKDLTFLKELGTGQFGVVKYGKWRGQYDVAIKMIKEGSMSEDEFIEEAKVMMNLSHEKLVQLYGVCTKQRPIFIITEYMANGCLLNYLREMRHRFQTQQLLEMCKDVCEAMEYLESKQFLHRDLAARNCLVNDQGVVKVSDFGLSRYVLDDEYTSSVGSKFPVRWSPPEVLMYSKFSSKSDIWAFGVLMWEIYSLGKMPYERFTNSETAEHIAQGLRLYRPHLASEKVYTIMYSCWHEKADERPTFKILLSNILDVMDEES

For `CCN(CC)CCOc1cnc(Nc2cc3c(cn2)cc(-c2ccccc2)c(=O)n3CC)nc1` [Compound 3, 7-[5-(2-Diethylamino-ethoxy)-pyrimidin-2-ylamino]-1-ethyl-3-phenyl-1H-[1,6]naphthyridin-2-one], the half-inhibitory concentration (IC50) (in general, the concentration that gives 50% inhibition) at Lyn [1] was more than 5 µM; on Src [2], 1 to 5 µM; against BTK it was 1 to 5 µM. Also, the figures for the EC50 with DoHH2 and in the assay with Ramos (48 hrs) were 1 to 10 µM and more than 10 µM, respectively.

Regarding `CCn1c(=O)c(-c2ccccc2)cc2cnc(Nc3ccc(C(=O)N4CCOCC4)cn3)cc21` [Compound 4, 1-Ethyl-7-[5-(morpholine-4-carbonyl)-pyridin-2-ylamino]-3-phenyl-1H-[1,6]naphthyridin-2-one], the 50% inhibitory concentration (IC50) at Lyn [1] was less than 0.1 µM; on Src [2], 0.1 to 1 µM; at BTK (read-out: BTK IC50), more than 5 µM. The figures for the EC50 with DoHH2 and in the assay with Ramos (48 hrs) were 1 to 10 µM and less than 1 µM, respectively.

As for `CC#Cc1cc2cnc(Nc3ccc(C)cn3)cc2n(CC)c1=O` [Compound 21], the IC50 was more than 5 µM on Lyn [1], 0.1 to 1 µM against Src [2] and more than 5 µM at BTK (read-out: BTK IC50). Moreover, the EC50 in the assay on DoHH2 and in the assay with Ramos (48 hrs) was 1 to 10 µM in each case.

For `CCn1c(=O)c(C2CCCC2)cc2cnc(Nc3ccc(C)cn3)cc21` [Compound 31, 3-Cyclopentyl-1-ethyl-7-(5-methyl-pyridin-2-ylamino)-1H-[1,6]naphthayridin-2-one], the concentration for half-maximal inhibition (IC50) on Lyn [1] was more than 5 µM; at Src [2] it was 0.1 to 1 µM; on BTK (read-out: BTK IC50), more than 5 µM. For the same compound, the half-maximal effective concentration (EC50) (usually the concentration needed to bring the measured effect to its halfway point) was more than 10 µM in the assay on DoHH2 and 1 to 10 µM with Ramos (48 h).

Consider `CCn1c(=O)c(C#CCOC)cc2cnc(Nc3ccc(C)cn3)cc21` [Compound 32], for which the figures for the half-maximal inhibitory concentration (IC50) at Lyn [1], against Src [2] and on BTK (read-out: BTK IC50) were more than 5 µM, 1 to 5 µM and more than 5 µM, respectively. For the same compound, the EC50 in the assay with DoHH2 and in the assay with Ramos (48 h) was more than 10 µM in each case.

Regarding `CCn1c(=O)c(C(C)=O)cc2cnc(Nc3ccc(C)cn3)cc21` [Compound 33], the IC50 on Lyn [1] was more than 5 µM; on Src [2], 1 to 5 µM; on BTK (read-out: BTK IC50), more than 5 µM. The 50% effective concentration (EC50) with DoHH2 and in the assay on Ramos (48 hrs) was more than 10 µM in each case.

Take `CCn1c(=O)c(C#CC(C)(C)C)cc2cnc(Nc3ccc(C)cn3)cc21` [Compound 39]: the IC50 at Lyn [1] was more than 5 µM; at Src [2] it was 0.1 to 1 µM; on BTK (read-out: BTK IC50), more than 5 µM. Also, the EC50 in the assay on DoHH2 and in the assay on Ramos (48 h) was 1 to 10 µM in each case.

On to `CCn1c(=O)c(-c2ccc(C)cc2)cc2cnc(Nc3ccc(C)cn3)cc21` [Compound 40, 1-ethyl-7-(5-methylpyridin-2-ylamino)-3-p-tolyl-1,6-naphthyridin-2(1H)-one], for which the IC50 was more than 5 µM on Lyn [1], 0.1 to 1 µM against Src [2] and more than 5 µM at BTK (read-out: BTK IC50). The EC50 in the assay with DoHH2 and in the assay on Ramos (48 h) was more than 10 µM throughout.

For `CCn1c(=O)c(-c2cccc(C)c2)cc2cnc(Nc3ccc(C)cn3)cc21` [Compound 41, 1-ethyl-7-(5-methylpyridin-2-ylamino)-3-m-tolyl-1,6-naphthyridin-2(1H)-one], the 50% inhibitory concentration (IC50) against Lyn [3] was 1 to 5 µM; at BTK (read-out: BTK IC50), more than 5 µM; on Src [4] it was more than 5 µM. Moreover, the EC50 in the assay on DoHH2 and with Ramos (48 h) was more than 10 µM throughout.

Take `CCN(CC)CCOc1ccc(Nc2cc3c(cn2)cc(C(C)C)c(=O)n3CCOC)nc1` [Compound 57, 7-[5-(2-Diethylamino-ethoxy)-pyridin-2-ylamino]-3-isopropyl-1-(2-methoxy-ethyl)-1H-[1,6]naphthyridin-2-one]: the values for the IC50 on Lyn [1], against Src [2] and on BTK were more than 5 µM, 0.1 to 1 µM and 1 to 5 µM, respectively. Also, the figures for the EC50 with DoHH2 and in the assay on Ramos (48 hrs) were 1 to 10 µM and more than 10 µM, respectively.

`CCN(CC)CCOc1ccc(Nc2cc3c(cn2)cc(C(C)C)c(=O)n3C)nc1` [Compound 59, 7-[5-(2-Diethylamino-ethoxy)-pyridin-2-ylamino]-3-isopropyl-1-methyl-1H-[1,6]naphthyridin-2-one] returned an IC50 at Src [2] of 0.1 to 1 µM. Moreover, the half-maximal effective concentration (EC50) in the assay on DoHH2 was 1 to 10 µM; in the assay on Ramos (48 hrs), more than 10 µM.

For the compound `CCn1c(=O)c(-c2ccccc2)cc2cnc(Nc3ccnc(O)n3)cc21` [Compound 63, 1-Ethyl-7-(2-hydroxy-pyrimidin-4-ylamino)-3-phenyl-1H-[1,6]naphthyridin-2-one], the concentration for half-maximal inhibition (IC50) at Lyn [3] was 0.1 to 1 µM; against BTK, 1 to 5 µM; on Src [4] it was less than 0.1 µM. Besides, the EC50 in the assay with DoHH2 and in the assay on Ramos (48 hrs) was 1 to 10 µM in each case.

As to `CCn1c(=O)c(-c2nccs2)cc2cnc(Nc3ccc(C)cn3)cc21` [Compound 68], the values for the IC50 against Lyn [3], at BTK (read-out: BTK IC50) and on Src [4] were 1 to 5 µM, more than 5 µM and more than 5 µM, respectively. Further, the EC50 in the assay with DoHH2 is 1 to 10 µM; in the assay on Ramos (48 hrs) it was more than 10 µM.

In the case of `CCn1c(=O)c(-c2ccccc2Cl)cc2cnc(Nc3ccc(F)cn3)cc21` [Compound 71, 3-(2-chlorophenyl)-1-ethyl-7-(5-fluoropyridin-2-ylamino)-1,6-naphthyridin-2(1H)-one], the IC50 on Lyn [3] is 0.1 to 1 µM; on BTK, 1 to 5 µM; on Src [4] it was less than 0.1 µM. Moreover, the half-maximal effective concentration (EC50) with DoHH2 is 1 to 10 µM; in the assay with Ramos (48 hrs) it was more than 10 µM.

For the compound `CCN(CC)CCOc1ccc(Nc2cc3c(cn2)cc(-c2c(F)cc(Cl)cc2F)c(=O)n3CC)nc1` [Compound 98, 3-(4-chloro-2,6-difluorophenyl)-7-((5-(2-(diethylamino)ethoxy)pyridin-2-yl)amino)-1-ethyl-1,6-naphthyridin-2(1H)-one], the concentration for half-maximal inhibition (IC50) on Lyn [3] was 0.1 to 1 µM; at BTK (read-out: BTK IC50), less than 0.1 µM; on Src [4], less than 0.1 µM. For the same compound, the EC50 in the assay on DoHH2 and with Ramos (48 hrs) was 1 to 10 µM in each case.

On to `CCN(CC)CCOc1ccc(Nc2cc3c(cn2)cc(-c2cccnc2)c(=O)n3CC)nc1` [Compound 103, 7-((5-(2-(diethylamino)ethoxy)pyridin-2-yl)amino)-1-ethyl-3-(pyridin-3-yl)-1,6-naphthyridin-2(1H)-one], for which the 50% inhibitory concentration (IC50) at Lyn [3] is 0.1 to 1 µM; at BTK (read-out: BTK IC50), more than 5 µM; on Src [4], less than 0.1 µM. For the same compound, the EC50 in the assay with DoHH2 was 1 to 10 µM; with Ramos (48 hrs) it was more than 10 µM.

With `CCN(CC)CCOc1ccc(Nc2cc3c(cn2)cc(-c2cccc(SC)c2)c(=O)n3CC)nc1` [Compound 105, 7-((5-(2-(diethylamino)ethoxy)pyridin-2-yl)amino)-1-ethyl-3-(3-(methylthio)phenyl)-1,6-naphthyridin-2(1H)-one], the 50% inhibitory concentration (IC50) against Lyn [3] was 0.1 to 1 µM; on BTK, 1 to 5 µM; on Src [4], less than 0.1 µM. Further, the EC50 in the assay on DoHH2 and in the assay on Ramos (48 hrs) was 1 to 10 µM in each case.

Consider `CCN(CC)CCOc1ccc(Nc2cc3c(cn2)cc(-c2ccccc2Cl)c(=O)n3CC)nc1` [Compound 106, 3-(2-chlorophenyl)-7-((5-(2-(diethylamino)-ethoxy)pyridin-2-yl)amino)-1-ethyl-1,6-naphthyridin-2(1H)-one], for which the IC50 is 0.1 to 1 µM against Lyn [3], less than 0.1 µM at BTK (read-out: BTK IC50) and more than 5 µM on Src [4]. For the same compound, the half-maximal effective concentration (EC50) is less than 1 µM in the assay on DoHH2 and more than 10 µM in the assay on Ramos (48 hrs).

`O=c1c(-c2c(F)cccc2F)cc2cnc(Nc3ccc(F)cn3)cc2n1[C@H]1CCNC1` [Compound 149, (S)-3-(2,6-difluorophenyl)-7-((5-fluoropyridin-2-yl)amino)-1-(pyrrolidin-3-yl)-1,6-naphthyridin-2(1H)-one]: the values for the IC50 at Lyn [1] and against Src [2] were more than 5 µM and 1 to 5 µM, respectively. In addition, the EC50 in the assay with DoHH2 was 1 to 10 µM; in the assay with Ramos (48 hrs) it was more than 10 µM.
